Structures can show the parent of a compound that is named as a salt. Where two headings read alike, the source gives them in different places.
Assays:
Type in all cases: biochemical
recombinant PRL-2 = target: T1, recombinant PRL-2 (Homo sapiens, UniProt Q12974); test: In vitro phosphatase assay (DiFMUP hydrolysis), PRL-2;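 also: PRL-2 activity read as DiFMUP hydrolysis after 20 min at room temperature with drug, enzyme first pre-reduced at 4 °C for 20 min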
T1 construct: 6xHis (N, cleaved yes); made in house; host or cells: E. coli One Shot BL21 Star
T1 sequence (Q12974 1-167): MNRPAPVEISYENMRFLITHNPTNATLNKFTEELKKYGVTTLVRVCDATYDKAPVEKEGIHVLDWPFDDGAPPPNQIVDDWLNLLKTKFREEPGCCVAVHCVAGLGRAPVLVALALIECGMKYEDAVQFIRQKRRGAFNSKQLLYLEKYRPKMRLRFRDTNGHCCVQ

recombinant PRL-1 = target: T2, recombinant PRL-1 (Homo sapiens, UniProt Q93096); test: In vitro phosphatase assay (DiFMUP hydrolysis), PRL-1; also: test concentration or dose not given here
T2 construct: 6xHis (N, cleaved yes); made in house; host or cells: E. coli One Shot BL21 Star
T2 sequence (Q93096 1-173): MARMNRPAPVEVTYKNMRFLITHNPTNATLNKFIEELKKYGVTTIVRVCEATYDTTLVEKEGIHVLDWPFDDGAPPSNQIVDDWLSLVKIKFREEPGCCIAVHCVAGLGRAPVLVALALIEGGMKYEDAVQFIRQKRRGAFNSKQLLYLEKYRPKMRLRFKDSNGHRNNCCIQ

recombinant PRL-3 = target: T3, recombinant PRL-3 (Homo sapiens, UniProt O75365); test: In vitro phosphatase assay (DiFMUP hydrolysis), PRL-3; also: test concentration or dose not given here
T3 construct: 6xHis (N, cleaved yes); made in house; host or cells: E. coli One Shot BL21 Star
T3 sequence (O75365 whole entry): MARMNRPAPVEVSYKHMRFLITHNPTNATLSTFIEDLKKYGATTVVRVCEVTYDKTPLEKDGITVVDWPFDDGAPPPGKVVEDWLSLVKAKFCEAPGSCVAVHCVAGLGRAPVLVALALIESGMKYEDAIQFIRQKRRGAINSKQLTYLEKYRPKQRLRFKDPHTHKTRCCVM

[1] = FDA-approved drug screen, compared to DMSO

Structure (SMILES)	% Phosphatase Activity (compared to DMSO) PRL-2 (recombinant PRL-2)	% Phosphatase Activity (compared to DMSO) PRL-1 (recombinant PRL-1)	% Phosphatase Activity (compared to DMSO) PRL-3 (recombinant PRL-3)	% Phosphatase Activity (compared to DMSO) PRL-2 (recombinant PRL-2; [1])	% Phosphatase Activity (compared to DMSO) PRL-1 (recombinant PRL-1; [1])	% Phosphatase Activity (compared to DMSO) PRL-3 (recombinant PRL-3; [1])
CCCN[C@H]1CCc2nc(N)sc2C1 [Pramipexole dihydrochloride monohydrate]	98%	87%	90%	–	–	–
CCCN[C@H]1CCc2nc(N)sc2C1 [Pramipexole]	106%	109%	72%	–	–	–
CCCCOc1ccc(OCCCN2CCOCC2)cc1 [Pramoxine HCl]	–	–	–	91%	82%	74%
O=C(Nc1cccc2c(=O)cc(-c3nnn[nH]3)oc12)c1ccc(OCCCCc2ccccc2)cc1 [Pranlukast]	–	–	–	205%	147%	54%
CC(C(=O)O)c1ccc2c(c1)Cc1cccnc1O2 (stereo not drawn) [Pranoprofen]	–	–	–	87%	97%	92%
CC(=O)Oc1cc2c(s1)CCN(C(C(=O)C1CC1)c1ccccc1F)C2 (stereo not drawn) [Prasugrel Hydrochloride]	–	–	–	109%	92%	87%
CC(=O)Oc1cc2c(s1)CCN(C(C(=O)C1CC1)c1ccccc1F)C2 (stereo not drawn) [Prasugrel]	–	–	–	88%	91%	79%
CC[C@H](C)C(=O)O[C@H]1C[C@H](O)C=C2C=C[C@H](C)[C@H](CC[C@@H](O)C[C@@H](O)CC(=O)O)[C@H]21 [Pravastatin sodium]	–	–	–	113%	93%	93%
O=C(C1CCCCC1)N1CC(=O)N2CCc3ccccc3C2C1 (stereo not drawn) [Praziquantel]	–	–	–	88%	102%	73%
COc1cc2nc(N3CCN(C(=O)c4ccco4)CC3)nc(N)c2cc1OC [Prazosin HCl]	–	–	–	435%	460%	263%
CC(=O)OCC(=O)[C@@]1(O)CC[C@H]2[C@@H]3CCC4=CC(=O)C=C[C@]4(C)[C@H]3[C@@H](O)C[C@@]21C [Prednisolone Acetate]	–	–	–	102%	105%	80%
C[C@]12C=CC(=O)C=C1CC[C@@H]1[C@@H]2[C@@H](O)C[C@@]2(C)[C@H]1CC[C@]2(O)C(=O)CO [Prednisolone]	–	–	–	99%	89%	103%
C[C@]12C=CC(=O)C=C1CC[C@@H]1[C@@H]2C(=O)C[C@@]2(C)[C@H]1CC[C@]2(O)C(=O)CO [Prednisone]	–	–	–	91%	98%	80%
CC(=O)[C@H]1CC[C@H]2[C@@H]3CC=C4C[C@@H](O)CC[C@]4(C)[C@H]3CC[C@]12C [Pregnenolone]	–	–	–	101%	89%	88%
CCCNC(C)C(=O)Nc1ccccc1C (stereo not drawn) [Prilocaine]	–	–	–	107%	97%	78%
CCC1(c2ccccc2)C(=O)NCNC1=O [Primidone]	–	–	–	93%	84%	79%
CCCC(C(=O)OCCN(CC)CC)(c1ccccc1)c1ccccc1 [Proadifen HCl]	–	–	–	106%	94%	105%
CCCN(CCC)S(=O)(=O)c1ccc(C(=O)O)cc1 [Probenecid]	–	–	–	114%	110%	84%
CC(C)(Sc1cc(C(C)(C)C)c(O)c(C(C)(C)C)c1)Sc1cc(C(C)(C)C)c(O)c(C(C)(C)C)c1 [Probucol]	–	–	–	122%	100%	78%
CCN(CC)CCNC(=O)c1ccc(N)cc1 [Procainamide HCl]	–	–	–	127%	94%	75%
CCN(CC)CCOC(=O)c1ccc(N)cc1 [Procaine HCl]	–	–	–	112%	108%	92%

Structure (SMILES)	% Phosphatase Activity (compared to DMSO) PRL-2 (recombinant PRL-2)	% Phosphatase Activity (compared to DMSO) PRL-1 (recombinant PRL-1)	% Phosphatase Activity (compared to DMSO) PRL-3 (recombinant PRL-3)	% Phosphatase Activity (compared to DMSO) PRL-2 (recombinant PRL-2; [1])	% Phosphatase Activity (compared to DMSO) PRL-1 (recombinant PRL-1; [1])	% Phosphatase Activity (compared to DMSO) PRL-3 (recombinant PRL-3; [1])
CCN(CC)CCOC(=O)c1ccc(N)cc1 [Procaine]	–	–	–	94%	102%	80%
CNNCc1ccc(C(=O)NC(C)C)cc1 [Procarbazine HCl]	–	–	–	90%	103%	87%
CN1CCN(CCCN2c3ccccc3Sc3ccc(Cl)cc32)CC1.O=C(O)/C=C\C(=O)O.O=C(O)/C=C\C(=O)O [Prochlorperazine dimaleate salt]	–	–	–	108%	93%	91%
O=C(O)CCc1nc2ccccc2[nH]1 [Procodazole]	–	–	–	85%	98%	86%
OC(CCN1CCCC1)(c1ccccc1)C1CCCCC1 (stereo not drawn) [Procyclidine HCl]	–	–	–	118%	112%	95%
Nc1ccc2cc3ccc(N)cc3nc2c1 [Proflavine Hemisulfate]	–	–	–	61%	81%	100%
CC(=O)[C@H]1CC[C@H]2[C@@H]3CCC4=CC(=O)CC[C@]4(C)[C@H]3CC[C@]12C [Progesterone]	–	–	–	96%	90%	76%
CC(CN1c2ccccc2Sc2ccccc21)N(C)C.Cl (stereo not drawn) [Promethazine HCl]	–	–	–	106%	99%	77%
CCCNCC(O)COc1ccccc1C(=O)CCc1ccccc1 (stereo not drawn) [Propafenone HCl]	–	–	–	114%	98%	79%
CCCOc1ccc(C(=O)OCCN(CC)CC)cc1N [Proparacaine HCl]	–	–	–	108%	78%	96%
CC(C)NCC(O)COc1cccc2ccccc12.Cl (stereo not drawn) [Propranolol HCl]	–	–	–	128%	95%	70%
CCCc1cc(=O)[nH]c(=S)[nH]1 [Propylthiouracil]	93%	94%	91%	–	–	–
CCCc1cc(C(N)=S)ccn1 [Protionamide]	–	–	–	101%	100%	97%
NC(=O)[C@@H]1CCCN1C(=O)[C@H](Cc1cnc[nH]1)NC(=O)[C@@H]1CCC(=O)N1 [Protirelin]	–	–	–	91%	97%	106%
COCCCN1CCC(NC(=O)c2cc(Cl)c(N)c3c2OCC3)CC1.O=C(O)CCC(=O)O [Prucalopride Succinat]	–	–	–	77%	76%	85%
COCCCN1CCC(NC(=O)c2cc(Cl)c(N)c3c2OCC3)CC1 [Prucalopride]	–	–	–	113%	97%	85%
COc1ccc(C[C@H](N)C(=O)N[C@H]2[C@@H](O)[C@H](n3cnc4c(N(C)C)ncnc43)O[C@@H]2CO)cc1.Cl.Cl [Puromycin 2HCl]	–	–	–	101%	106%	113%
NC(=O)c1cnccn1 [Pyrazinamide]	–	–	–	93%	85%	95%
CN(C)C(=O)Oc1ccc[n+](C)c1 [Pyridostigmine Bromide]	–	–	–	109%	106%	77%
Cc1ncc(CO)c(CO)c1O [Pyridoxine HCl]	–	–	–	102%	100%	91%
COc1ccc(CN(CCN(C)C)c2ccccn2)cc1 [Pyrilamine Maleate]	–	–	–	111%	94%	98%

From PMC8119466, “A screen of FDA-approved drugs identifies inhibitors of protein tyrosine phosphatase 4A3 (PTP4A3 or PRL-3)” (Scientific Reports, 2021)
